Results on 25 compounds are retold here after ChEMBL document CHEMBL1201862, “PubChem BioAssay data set” (2004).

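Dose response: 5 concentrations. Exposure: 48 h. Format: 96-well plates. Endpoint: linear interpolation; highest concentration if not reached. At the GI50, growth is halved.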 Calls of active or inactive are those of the source. Cut-off read from the data, not from the text of the source: active = GI50 up to about 1.1 µM and inactive = higher.

What all share (test): NCI-60 cell line screen, 48 h
Experiment [1] has as its system HOP-18.
Experiment [2] deals with LXFL 529.
Experiment [3] concerns DLD-1.
The test system of experiment [4] is M19-MEL.
The test system of experiment [5] is KM-20L2.
Experiment [6] relates to XF498.
Experiment [7] relates to DMS-273.
Experiment [8] relates to DMS-114.
Experiment [9] relates to RXF 631.

`Cc1nn2c3c(nnc2c1C#N)C(=O)NN=C(N)S3`: the GI50 in experiment [1], in experiment [2], in experiment [3], in experiment [4] and in experiment [5] was > 100 µM (inactive) throughout.
In the case of `FC(F)(F)c1nc(-c2ccccc2Cl)[nH]c1C(F)(F)F`, the GI50 is 0.621 µM (active) in [6]; 0.364 µM (active) in experiment [1]; 0.873 µM (active) in [7]; 0.673 µM (active) in [8]; 0.935 µM (active) in experiment [2]; 1.13 µM (inactive) in [3]. In addition, the GI50 was 0.697 µM (active) in experiment [4] and 0.619 µM (active) in experiment [5].
For `O=C(CSc1nnc(-c2ccc(/N=C\c3ccc(Cl)cc3)cc2)o1)Nc1ccccc1[N+](=O)[O-]`, the GI50 in [6], in experiment [1], in experiment [7], in experiment [8], in [2] and in experiment [4] was > 100 µM (inactive) throughout. Besides, in [5], the GI50 was > 100 µM (inactive).
Take `O=C(Nc1nnc(S)[nH]1)C(=O)C(c1cnc2ccc([N+](=O)[O-])cc2n1)[N+](=O)[O-]` (stereo not given): the GI50 in experiment [6] is > 100 µM (inactive); in experiment [9] it was > 100 µM (inactive); in experiment [1], > 100 µM (inactive); in [8], 47 µM (inactive); in [2], > 100 µM (inactive); in experiment [3], > 100 µM (inactive). For the same compound, the GI50 in experiment [4] is > 100 µM (inactive); in experiment [5], 81.3 µM (inactive).
For the compound `O=c1nc(NC(c2ccccc2)(c2ccccc2)c2ccccc2)ccn1CCNCCn1ccc(NC(c2ccccc2)(c2ccccc2)c2ccccc2)nc1=O`, the GI50 was 4.11 µM (inactive) in experiment [6]; 16.3 µM (inactive) in [1]; 4.16 µM (inactive) in [7]; 3.23 µM (inactive) in experiment [8]; 5.26 µM (inactive) in experiment [2]; 6.53 µM (inactive) in experiment [3]. Besides, the GI50 in experiment [4] was 4.46 µM (inactive); in experiment [5] it was 10 µM (inactive).
As for `CC1CC2C(=O)N(c3ccccc3)C(=O)C2c2c1c1ccccc1n2Cc1ccccc1` (stereo not given), the GI50 in experiment [8] was 31 µM (inactive); in experiment [2], > 100 µM (inactive); in experiment [3], 12.5 µM (inactive); in experiment [4], > 100 µM (inactive).
Regarding `C1=C(c2ccccc2)CN(c2ccccc2)OC1`, the GI50 is > 100 µM (inactive) in experiment [6]; 2.71 µM (inactive) in [1]; > 100 µM (inactive) in [7]; 64 µM (inactive) in experiment [2]; 78.5 µM (inactive) in [3]; 47.5 µM (inactive) in experiment [4]. In [5], the GI50 was 63.5 µM (inactive).
Turning to `CCCCCCCCCCCC(=O)OCC1OC(n2cc(F)c(=O)[nH]c2=O)C(N)C(OC(=O)CCCCCCCCCCC)C1O` (stereo not given), the GI50 is 44.3 µM (inactive) in experiment [7]; 49.5 µM (inactive) in experiment [8]; 33.9 µM (inactive) in experiment [2]; > 100 µM (inactive) in experiment [4]; > 100 µM (inactive) in [5].
As for `O=C(CCc1nnc(S)[nH]1)Nc1ccccc1Cl`, the GI50 in experiment [6], in experiment [1], in [7], in experiment [8], in [2] and in [3] was > 100 µM (inactive) each time. For the same compound, the GI50 in [4] and in experiment [5] was > 100 µM (inactive) each time.
Take `COC(=O)c1nc(N)nc(O)c1-c1ccc(Cl)cc1`: the GI50 in [6], in experiment [9], in experiment [7], in experiment [8], in experiment [2] and in [3] was > 100 µM (inactive) in each case. Besides, the GI50 in experiment [4] and in [5] was > 100 µM (inactive) in each case.
Take `N#C/C(c1nc2ccccc2[nH]1)=c1\s/c(=C/c2ccc(Cl)cc2)c(=O)n1-c1ccccc1`: the GI50 in [6], in [1], in experiment [7], in [8], in [2] and in experiment [3] was > 100 µM (inactive) each time. Further, the GI50 in [4] and in [5] was > 100 µM (inactive) throughout.
Regarding `NC(=O)N/N=C(\CCC(=O)N(Cc1ccccc1)Cc1ccccc1)CC(=O)c1ccc(F)cc1`, the GI50 in experiment [9], in experiment [1], in [8], in [2], in [3] and in experiment [4] was > 100 µM (inactive) in each case. In addition, in experiment [5], the GI50 was > 100 µM (inactive).
Take `O=c1[nH]cc(COCCCO)c(=O)[nH]1`: the GI50 in [6], in experiment [1], in experiment [7], in [2], in experiment [3] and in [4] was > 100 µM (inactive) in each case. Besides, the GI50 in experiment [5] is > 100 µM (inactive).
Take `COc1ccc(OC(=O)N2C/C(=C\c3ccccc3)C(=O)/C(=C/c3ccccc3)C2)cc1`: the GI50 in [1] was 16.8 µM (inactive); in experiment [7], 2.09 µM (inactive); in experiment [2], 2.64 µM (inactive); in experiment [3], 1.71 µM (inactive); in experiment [4], 1.38 µM (inactive); in [5] it was 5.42 µM (inactive).
As to `O=[N+]([O-])c1ccc(N2C[N+](c3ccccc3)=NC(c3ccccc3)=N2)cc1`, the GI50 in experiment [6] is 21.4 µM (inactive); in experiment [1], 21.1 µM (inactive); in [7] it was 45.1 µM (inactive); in [8] it was 22.5 µM (inactive); in experiment [2], 30.2 µM (inactive); in [3] it was 32.2 µM (inactive). In addition, the GI50 was 75.3 µM (inactive) in [4] and 31.9 µM (inactive) in experiment [5].
For the compound `CC1(C)Cc2nnsc2C2=C1C(=O)CCS2`, the GI50 in experiment [1], in experiment [7], in experiment [8], in experiment [2], in [3] and in [5] was > 100 µM (inactive) in each case.
Regarding `CCC(/C(=N/NC(=O)C[N+](C)(C)C)c1ccccc1)C1OC(=O)c2ccccc21` (stereo not given), the GI50 in experiment [6], in [9], in experiment [7], in [8], in [2] and in experiment [4] was > 100 µM (inactive) in each case. Further, the GI50 in experiment [5] is > 100 µM (inactive).
For the compound `O=C(O)CCCCCOc1cccnc1/C=N/NC1=NCCN1`, the GI50 in [6] was 91 µM (inactive); in [1] it was > 100 µM (inactive); in experiment [7], > 100 µM (inactive); in [2], > 100 µM (inactive); in experiment [3] it was > 100 µM (inactive); in [4], > 100 µM (inactive). Besides, the GI50 in experiment [5] is > 100 µM (inactive).
With `CN(C)C(=S)/N=c1\ss/c(=N\c2ccccc2)n1-c1ccccc1`, the GI50 was 29.9 µM (inactive) in experiment [9]; 28.5 µM (inactive) in experiment [1]; 16.6 µM (inactive) in [7]; 1.44 µM (inactive) in experiment [8]; 0.0542 µM (active) in [2]; 28.4 µM (inactive) in [3]. Besides, the GI50 in [4] is 24.7 µM (inactive).
`NNC(=O)CCC(=O)NC1C2CC3CC(C2)CC1C3` (stereo not given): the GI50 in experiment [7], in experiment [8], in experiment [2], in [3], in [4] and in experiment [5] was > 100 µM (inactive) each time.
Regarding `COc1ccc(OCC(=O)O)c2c1CCC(C(C)C)C2=O` (stereo not given), the GI50 in [9], in experiment [1], in experiment [7], in experiment [8], in experiment [2] and in experiment [3] was > 100 µM (inactive) in each case. The GI50 in experiment [4] and in [5] was > 100 µM (inactive) each time.
Turning to `CC(=O)OCC1OC(OC2CC3C(C)(C)C(OC(C)=O)CC[C@]3(C)C3CCC45CC4(CC[C@H]5C(C)CC(O)[C@@H](O)C(C)(C)O)[C@]23C)C(O)C(O)C1O` (stereo not given in full), the GI50 was 19.8 µM (inactive) in experiment [6]; 8.61 µM (inactive) in [1]; 7.62 µM (inactive) in experiment [7]; 5.65 µM (inactive) in experiment [2]; 7.41 µM (inactive) in experiment [3]; 7.55 µM (inactive) in [4]. The GI50 in experiment [5] is 8.05 µM (inactive).
For the compound `CC1CC[C@]2(C(=O)O)CCC3(C)C(=CCC4[C@@]5(C)CC[C@H](OS(=O)(=O)c6ccccc6)C(C)(C)C5CC[C@]43C)[C@@H]2[C@H]1C` (stereo not given in full), the GI50 in experiment [6] is 36.4 µM (inactive); in experiment [9], > 100 µM (inactive); in experiment [1], 37.9 µM (inactive); in experiment [7], > 100 µM (inactive); in experiment [8], 39.2 µM (inactive); in experiment [2] it was 69.8 µM (inactive). The values for the GI50 in experiment [3] and in experiment [4] were 82 µM (inactive) and > 100 µM (inactive), respectively.
For `Cc1nc2ccccc2c(=O)[nH]1`, the GI50 in [6], in experiment [9], in experiment [1], in [2], in [3] and in experiment [4] was > 100 µM (inactive) throughout. The GI50 in [5] was > 100 µM (inactive).
For `CC(=O)OC(/C=C1/C=CC(=O)O1)COC(=O)c1ccccc1` (stereo not given) [ACETYLMELODORINOL], the GI50 in experiment [6], in [1], in experiment [7], in experiment [8], in experiment [2] and in experiment [3] was > 31.2 µM (inactive) throughout. For the same compound, the GI50 in experiment [4] and in experiment [5] was > 31.2 µM (inactive) each time.
